Values of other authors, collected in patent US20200277251A1, “NOVEL ANTIBACTERIAL COMPOUNDS AND METHODS OF MAKING AND USING SAME” (BROWN UNIVERSITY, priority 2017, published 2020).

Test system: LT
Conditions: purified autolysin; cited from earlier work

## CC1=N[C@@H]2[C@@H](O)[C@H](O)[C@@H](CO)O[C@@H]2S1 [NAG-thiazoline]
  binding to LT: weak binder
